Reference: publication PMC6273932, “Xanthium strumarium as an Inhibitor of α-Glucosidase, Protein Tyrosine Phosphatase 1β, Protein Glycation and ABTS^+ for Diabetic and Its Complication” (Molecules, 2016)
Values after ≈ are worked out from the molar mass of the structure shown. Values belong to the molecule of their own block, whether it stands above or below them.

Experiments:
α-glucosidase = target: α-glucosidase; parameters: method as in ref 15 (Chen et al.); conditions: compounds isolated from aerial parts of Gynura divaricate; ref 15 (Chen et al.); read-out: inhibitory effects against α-glucosidase; cited from earlier work
PTP1β = tested on: PTP1β; parameters: method as in ref 16 (Hwang et al.); conditions: compounds isolated from Zea mays L.; ref 16 (Hwang et al.); read-out: PTP1β inhibitory activity IC50; cited from earlier work
[1] = tested on: α-glucosidase from Saccharomyces sp.; test: α-glucosidase inhibitory activity assay (pNPG substrate, absorbance 405 nm); assay type: biochemical
Excerpt: ^1H- and ^13C-NMR spectra and correlation NMR spectra such as COSY, HMBC, HMQC, and DEPT were obtained from a Bruker Avance DPX 400 (or 600) spectrometer (Berlin, Germany). These were obtained at operating frequencies of 400 MHz (^1H) and 100 (or 150) MHz (^13C) with CD3OD, (CD3)2SO, (CD3)2CO, or D2O and TMS was used as an internal standard; chemical shifts were reported in δ values. The α-glucosidase from Saccharomyces sp. (SSG) was purchased from Wako Pure Chemical Industries Ltd (Tokyo, Japan). […] All other chemicals and reagents used were of analytical grade.
The α-glucosidase inhibitory activity of the extracts and fractions was determined using a modified procedure reported method with a slight modification. The α-glucosidase activity was measured using the substrate p-nitrophenyl-α-D-glucopyranoside (pNPG), which is hydrolyzed by α-glucosidase to release the product p-nitrophenol, a colorant that can be monitored at 405 nm. The initial concentration of the enzyme solution was 0.62 unit/mL in 0.1 M phosphate buffer (pH 6.9) and the initial concentration of the substrate solution was 2 mM in the same phosphate buffer. The enzyme solution was mixed with water and the samples or controls in a clear 96-well microplate (flat bottom) and the reaction was initiated by addition of the substrate to the solution. The plates were incubated at 37 °C for 5 min and the reaction was terminated by the addition of 0.1 M Na2CO3. […] Background absorbance was determined using a non-enzyme control microplate containing the buffer and was subtracted from the absorbance of the samples and controls.

[2] = tested on: advanced glycation end products (AGEs); test: AGEs inhibitory activity, bovine serum albumin-methylglyoxal assay (fluorescence); assay type: biochemical; conditions: for IC50 AGEs: - is no activity
Method: The modified procedure of Lee et al. was followed. Bovine serum albumin (10 mg/mL) was incubated with 5 mM methylglyoxal in sodium phosphate buffer (100 mM; pH 7.4). […] All of the reagents and samples were […] by filtration through 0.2 μm membrane filters and the mixture was incubated at 37 °C for 7 days. The fluorescence intensity was measured at an excitation wavelength of 330 nm and an emission wavelength of 410 nm with a LS50B fluorescence spectrometer Perkin-Elmer Ltd., (Buckinghamshire, FLS, UK). Aminoguanidine was also tested as a known inhibitor.

[3] = target: T1, protein tyrosine phosphatase 1β (PTP1β) (Homo sapiens, UniProt P18031); test: PTP1β inhibitory activity assay (colorimetric kit, IR5 phosphopeptide substrate); assay type: biochemical; conditions: for inhibition at 10 µg/mL: 10 μg/mL; for inhibition at 10 µg/mL / IC50: - is no activity; for IC50: isolated compounds
T1 sequence (P18031 1-322 limits assumed): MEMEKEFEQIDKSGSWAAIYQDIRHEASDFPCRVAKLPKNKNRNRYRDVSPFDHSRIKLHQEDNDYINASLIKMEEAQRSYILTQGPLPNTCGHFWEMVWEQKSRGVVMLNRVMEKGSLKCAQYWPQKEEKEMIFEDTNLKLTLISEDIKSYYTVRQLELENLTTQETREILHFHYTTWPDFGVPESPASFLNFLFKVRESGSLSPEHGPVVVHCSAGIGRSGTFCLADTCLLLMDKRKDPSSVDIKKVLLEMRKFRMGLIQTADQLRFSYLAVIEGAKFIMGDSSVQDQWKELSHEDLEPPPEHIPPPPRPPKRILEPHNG
Method: PTP1β tyrosine phosphatase drug discovery kit is a colorimetric, non-radioactive assay designed to measure the phosphatase activity of purified PTP1β. […] Following incubation at 37 °C for 30 min, the reaction was terminated with the BIOMOL RED^TM reagent. The amount of […] produced was estimated by measuring the absorbance at 620 nm. The non-enzymatic hydrolysis of the IR5 substrate was corrected by measuring the increase in absorbance at 620 nm obtained in the absence of PTP1β enzyme.

[4] = ABTS^+ radical scavenging activity assay; conditions: for IC50 / IC50 ABTS^+ radical scavenging: isolated compounds
Method: The method described by Li et al. was used with slight modifications. ABTS^+ diammonium salt (2 mM) and potassium persulfate (3.5 mM) were mixed, diluted in distilled water and kept in the dark at room temperature for 24 h before use. After addition of ABTS^+ solution to 10 µL of antioxidant, measurements were recorded at 10 min post reaction. The percentage inhibition of absorbance at 750 nm was calculated and plotted as a function of concentration of antioxidants. Trolox was used as positive control.

[5] = Table 2, crude extract and fractions, - is no activity

SMILES: O=C(/C=C/c1ccc(O)c(O)c1)O[C@H]1[C@H](O)C[C@](O)(C(=O)O)C[C@H]1OC(=O)/C=C/c1ccc(O)c(O)c1 [3,4-di-O-CQA]
IC50 (α-glucosidase): 187 µM

SMILES: COc1cc(-c2oc3cc(O)cc(O)c3c(=O)c2O[C@@H]2O[C@H](CO)[C@@H](O)[C@H](O)[C@H]2O)ccc1O [3′-methoxyhirsutrin]
IC50 (PTP1β): 64 µM

SMILES: O=C(/C=C/c1ccc(O)c(O)c1)O[C@@H]1[C@H](O)C[C@@](O)(C(=O)O)C[C@H]1OC(=O)/C=C/c1ccc(O)c(O)c1 [4,5-di-O-CQA]
IC50 (α-glucosidase): 131 µM

Inhibition (%) α-glucosidase ([1]; 50 μg/mL, - is no activity): 16.98% | Inhibition (%) α-glucosidase ([1]; 250 μg/mL): 41.06% | Inhibition (%) α-glucosidase ([1]; 500 μg/mL): 60.29% | Inhibition (%) α-glucosidase ([1]; 1000 μg/mL): 106.14% | IC50 α-glucosidase [1, 5]: 377.19 ± 38.17 µg/mL (≈ 584 µM) | IC50 ([1]; isolated compounds): 585 µM | IC50 α-glucosidase ([1]; isolated compounds, - is no activity): 377.19 ± 37.8 µg/mL (≈ 584 µM)
SMILES: C[C@H]1O[C@H](O[C@H]2[C@H](O)[C@@H](O)[C@@H](O[C@H]3[C@H](O)[C@@H](O)C(O)O[C@@H]3CO)O[C@@H]2CO)[C@H](O)[C@@H](O)[C@@H]1N[C@H]1C=C(CO)[C@@H](O)[C@H](O)[C@H]1O (some centres unmarked) [Acarbose, reference compound]

SMILES: N=C(N)NN [Aminoguanidine, reference compound]
Inhibition (%) AGEs ([2]; 50 μg/mL): 27.97% | Inhibition (%) AGEs ([2]; 100 μg/mL): 37.84% | Inhibition (%) AGEs ([2]; 200 μg/mL): 61.01% | Inhibition (%) AGEs ([2]; 400 μg/mL): 98.17% | IC50 AGEs ([2]; Table 2, crude extract and fractions): 166.22 ± 16.29 µg/mL (≈ 2240 µM) | IC50 ([2]; isolated compounds): 1410 µM | IC50 AGEs ([2]; isolated compounds): 155.88 ± 15.45 µg/mL (≈ 2100 µM)

SMILES: Cc1ccc(C(=O)Nc2ccc(S(=O)(=O)O)c3cc(S(=O)(=O)O)cc(S(=O)(=O)O)c23)cc1NC(=O)c1cccc(NC(=O)Nc2cccc(C(=O)Nc3cc(C(=O)Nc4ccc(S(=O)(=O)O)c5cc(S(=O)(=O)O)cc(S(=O)(=O)O)c45)ccc3C)c2)c1 [Suramin, reference compound]
inhibition at 1.43 µg/mL ([3]; 1.43 μg/mL): 10.4% | inhibition at 3.57 µg/mL ([3]; 3.57 μg/mL): 26.4% | inhibition at 7.15 µg/mL ([3]; 7.15 μg/mL): 52.2% | inhibition at 14.29 µg/mL ([3]; read-out: Inhibition (%) PTP1β): 83.6%

IC50 ABTS^+ [4, 5]: 7.51 ± 0.58 µg/mL (≈ 30 µM) | IC50 [4]: 29.7 µM | IC50 ABTS^+ radical scavenging ([4]; - is no activity): 7.43 ± 0.71 µg/mL (≈ 29.7 µM)
SMILES: Cc1c(C)c2c(c(C)c1O)CCC(C)(C(=O)O)O2 (centres unmarked) [Trolox, reference compound]
Inhibition (%) ABTS^+ ([4]; 1.66 μg/mL): 17.27% | Inhibition (%) ABTS^+ ([4]; 8.33 μg/mL): 54.14% | Inhibition (%) ABTS^+ ([4]; 16.66 μg/mL): 95.06%

SMILES: O=C(O)c1ccc(O)c(O)c1 [compound 1, protocatechuic acid]
Inhibition (%) ABTS^+ ([4]; 1.66 μg/mL): 25.17% | Inhibition (%) ABTS^+ ([4]; 8.33 μg/mL): 68.72% | Inhibition (%) ABTS^+ ([4]; 16.66 μg/mL): 97.22% | IC50 [4]: 32.9 µM | IC50 ABTS^+ radical scavenging ([4]; - is no activity): 4.94 ± 0.38 µg/mL (≈ 32.1 µM) | Inhibition (%) α-glucosidase ([1]; 50 μg/mL, - is no activity): 17.45% | inhibition at 10 µg/mL [3]: 28.6% | IC50 [3]: > 64.9 µM | Inhibition (%) AGEs ([2]; 100 μg/mL): 9.49%

Inhibition (%) α-glucosidase ([1]; 50 μg/mL, - is no activity): 8.60% | inhibition at 10 µg/mL [3]: 5.88% | IC50 [3]: > 60.2 µM
SMILES: O=C(CCO)c1ccc(O)cc1 [compound 2, 3-hydroxy-1-(4-hydroxyphenyl) propan-1-one]
Inhibition (%) AGEs ([2]; 100 μg/mL): 8.50%

Inhibition (%) α-glucosidase ([1]; 50 μg/mL, - is no activity): 4.70% | inhibition at 10 µg/mL [3]: < 0% | IC50 [3]: > 41.1 µM
SMILES: Nc1ccn([C@@H]2O[C@H](CO)[C@@H](O)[C@H]2O)c(=O)n1 [compound 3, cytidine]
Inhibition (%) AGEs ([2]; 100 μg/mL): 33.16%
